Broadly, the MIC is the least concentration at which growth counts as inhibited. Higher therefore signals a need for much substance.

For six compounds, MIC results are on record in ChEMBL document CHEMBL1275476, “Emergence of macrolide resistance gene mph(B) in Streptococcus uberis and cooperative effects with rdmC-like gene” (2008).

Values after ≈ are worked out from the molar mass of the structure shown.

What all share (format): functional
The subject of experiment [1] is Streptococcus uberis. In words: Antimicrobial activity against Streptococcus uberis UCN61 by broth microdilution method.
In experiment [2] the test system is Streptococcus uberis. In words: Antimicrobial activity against Streptococcus uberis UCN60 expressing mph(B) and rdmC-like genes by broth microdilution method. Background: Dilution methods test growth across graded concentrations, often in twofold steps.
Experiment [3] concerns Staphylococcus aureus. The experiment is described as follows: Antimicrobial activity against Staphylococcus aureus RN4220 harboring empty vector by broth microdilution method.
Experiment [4] deals with Staphylococcus aureus. In words: Antimicrobial activity against Staphylococcus aureus RN4220 harboring pAT392 containing rdmC-like gene by broth microdilution method.
The test system of experiment [5] is Enterococcus faecalis. The experiment is described as follows: Antimicrobial activity against Enterococcus faecalis JH2-2 harboring empty vector by broth microdilution method.
Experiment [6] relates to Enterococcus faecalis. In words: Antimicrobial activity against Enterococcus faecalis JH2-2 harboring pAT392 containing rdmC-like gene by broth microdilution method.
The test system of experiment [7] is Enterococcus faecalis. The experiment is described as follows: Antimicrobial activity against Enterococcus faecalis JH2-2 harboring pAT392 containing mph(B) and rdmC-like gene by broth microdilution method.
Experiment [8] has as its system Staphylococcus aureus. In words: Antimicrobial activity against Staphylococcus aureus RN4220 harboring pAT392 containing mph(B) and rdmC-like genes by broth microdilution method.
For experiment [9], the system named is Escherichia coli. In words: Antimicrobial activity against Escherichia coli AG100A harboring pAT392 containing mph(B) gene by broth microdilution method.
In experiment [10] the test system is Enterococcus faecalis. In words: Antimicrobial activity against Enterococcus faecalis JH2-2 harboring pAT392 containing mph(B) gene by broth microdilution method.
Experiment [11] deals with Staphylococcus aureus. In words: Antimicrobial activity against Staphylococcus aureus RN4220 harboring pAT392 containing mph(B) gene by broth microdilution method.
The test system of experiment [12] is Escherichia coli. The experiment is described as follows: Antimicrobial activity against Escherichia coli AG100A harboring pAT392 containing mph(B) and rdmC-like genes by broth microdilution method.
Experiment [13] has as its system Escherichia coli. In words: Antimicrobial activity against Escherichia coli AG100A harboring pAT392 containing rdmC-like gene by broth microdilution method.
In experiment [14] the test system is Escherichia coli. In words: Antimicrobial activity against Escherichia coli AG100A harboring empty vector by broth microdilution method.

On to `CC[C@H]1OC(=O)[C@H](C)[C@@H](O[C@H]2C[C@@](C)(OC)[C@@H](O)[C@H](C)O2)[C@H](C)[C@@H](O[C@@H]2O[C@H](C)C[C@H](N(C)C)[C@H]2O)[C@](C)(O)C[C@@H](C)CN(C)[C@H](C)[C@@H](O)[C@]1(C)O` [AZITHROMYCIN], for which the MIC in the experiment on Streptococcus uberis [1] and in the experiment with Streptococcus uberis [2] was 0.12 µg/mL (≈ 0.16 µM) in each case.
`CC[C@H]1OC(=O)[C@H](C)[C@@H](O[C@H]2C[C@@](C)(OC)[C@@H](O)[C@H](C)O2)[C@H](C)[C@@H](O[C@@H]2O[C@H](C)C[C@H](N(C)C)[C@H]2O)[C@](C)(O)C[C@@H](C)C(=O)[C@H](C)[C@@H](O)[C@]1(C)O` [ERYTHROMYCIN]: the minimum inhibitory concentration (MIC) against Staphylococcus aureus [3], against Staphylococcus aureus [4], against Enterococcus faecalis [5], in the experiment with Enterococcus faecalis [6], against Enterococcus faecalis [7] and against Staphylococcus aureus [8] was 0.25 µg/mL (≈ 0.341 µM) throughout. In addition, the MIC against Escherichia coli [9] worked out at 64 µg/mL (≈ 87.2 µM); in the experiment on Streptococcus uberis [1], 0.06 µg/mL (≈ 0.0818 µM); against Enterococcus faecalis [10], 0.25 µg/mL (≈ 0.341 µM); in the experiment with Staphylococcus aureus [11], 0.25 µg/mL (≈ 0.341 µM); in the experiment with Escherichia coli [12], 64 µg/mL (≈ 87.2 µM); against Streptococcus uberis [2], 0.06 µg/mL (≈ 0.0818 µM). Further, the minimal inhibitory concentration (MIC) against Escherichia coli [13] and with Escherichia coli [14] was 2 µg/mL (≈ 2.73 µM) in each case.
For `CCC[C@@H]1C[C@@H](C(=O)N[C@@H]([C@H]2O[C@H](SC)[C@H](O)[C@@H](O)[C@H]2O)[C@H](C)Cl)N(C)C1` [CLINDAMYCIN], the minimum inhibitory concentration (MIC) stood at 0.06 µg/mL (≈ 0.141 µM) in the experiment with Staphylococcus aureus [3]; 0.06 µg/mL (≈ 0.141 µM) against Staphylococcus aureus [4]; 2 µg/mL (≈ 4.71 µM) in the experiment on Enterococcus faecalis [5]; 2 µg/mL (≈ 4.71 µM) against Enterococcus faecalis [6]; 2 µg/mL (≈ 4.71 µM) against Enterococcus faecalis [7]; 0.06 µg/mL (≈ 0.141 µM) with Staphylococcus aureus [8]. Also, the minimum inhibitory concentration (MIC) with Escherichia coli [9] amounted to 2 µg/mL (≈ 4.71 µM); in the experiment with Streptococcus uberis [1] it was 0.03 µg/mL (≈ 0.0706 µM); with Enterococcus faecalis [10], 2 µg/mL (≈ 4.71 µM); in the experiment with Staphylococcus aureus [11], 0.06 µg/mL (≈ 0.141 µM); against Escherichia coli [12] it was 2 µg/mL (≈ 4.71 µM); against Streptococcus uberis [2], 0.03 µg/mL (≈ 0.0706 µM). Also, the minimum inhibitory concentration (MIC) against Escherichia coli [13] and against Escherichia coli [14] was 2 µg/mL (≈ 4.71 µM) each time.
For the compound `CC[C@H]1OC(=O)C[C@@H](O)[C@H](C)[C@@H](O[C@@H]2O[C@H](C)[C@@H](O[C@H]3C[C@@](C)(O)[C@@H](O)[C@H](C)O3)[C@H](N(C)C)[C@H]2O)[C@@H](CC=O)C[C@@H](C)C(=O)/C=C/C(C)=C/[C@@H]1CO[C@@H]1O[C@H](C)[C@@H](O)[C@@H](OC)[C@H]1OC` [TYLOSIN], the minimum inhibitory concentration (MIC) in the experiment on Staphylococcus aureus [3] was determined as 1 µg/mL (≈ 1.09 µM); against Staphylococcus aureus [4] it was 1 µg/mL (≈ 1.09 µM); in the experiment on Enterococcus faecalis [5], 1 µg/mL (≈ 1.09 µM); in the experiment with Enterococcus faecalis [6], 1 µg/mL (≈ 1.09 µM); with Enterococcus faecalis [7] it was 16 µg/mL (≈ 17.5 µM); with Staphylococcus aureus [8] it was 16 µg/mL (≈ 17.5 µM). Besides, the MIC against Escherichia coli [9] was 128 µg/mL (≈ 140 µM); in the experiment on Streptococcus uberis [1], 0.5 µg/mL (≈ 0.546 µM); with Enterococcus faecalis [10], 1 µg/mL (≈ 1.09 µM); against Staphylococcus aureus [11], 1 µg/mL (≈ 1.09 µM); against Escherichia coli [12], over 128 µg/mL; in the experiment on Streptococcus uberis [2] it was 0.5 µg/mL (≈ 0.546 µM). For the same compound, the minimum inhibitory concentration (MIC) in the experiment on Escherichia coli [13] and against Escherichia coli [14] was 16 µg/mL (≈ 17.5 µM) throughout.
As for `CO[C@@H]1[C@@H](O[C@@H]2O[C@H](C)[C@@H](O[C@H]3C[C@@](C)(O)[C@@H](OC(=O)CC(C)C)[C@H](C)O3)[C@H](N(C)C)[C@H]2O)[C@@H](CC=O)C[C@@H](C)[C@@H](O)/C=C/C=C/C[C@@H](C)OC(=O)C[C@H]1OC(C)=O` [JOSAMYCIN], the MIC against Staphylococcus aureus [3], against Staphylococcus aureus [4], with Enterococcus faecalis [5], against Enterococcus faecalis [6], with Enterococcus faecalis [7] and in the experiment on Staphylococcus aureus [8] was 1 µg/mL (≈ 1.21 µM) in each case. The minimal inhibitory concentration (MIC) against Escherichia coli [9] is 16 µg/mL (≈ 19.3 µM); against Streptococcus uberis [1], 0.25 µg/mL (≈ 0.302 µM); against Enterococcus faecalis [10], 1 µg/mL (≈ 1.21 µM); against Staphylococcus aureus [11] it was 1 µg/mL (≈ 1.21 µM); with Escherichia coli [12] it was 16 µg/mL (≈ 19.3 µM); against Streptococcus uberis [2] it was 0.25 µg/mL (≈ 0.302 µM). The MIC against Escherichia coli [13] and with Escherichia coli [14] was 8 µg/mL (≈ 9.66 µM) throughout.
Consider SPIRAMYCIN, for which the MIC came to 4 µg/mL with Staphylococcus aureus [3]; 4 µg/mL against Staphylococcus aureus [4]; 0.5 µg/mL with Enterococcus faecalis [5]; 2 µg/mL in the experiment with Enterococcus faecalis [6]; 64 µg/mL in the experiment on Enterococcus faecalis [7]; 32 µg/mL in the experiment on Staphylococcus aureus [8]. The MIC amounted to 400 µg/mL with Escherichia coli [9]; 0.5 µg/mL against Streptococcus uberis [1]; 8 µg/mL in the experiment with Enterococcus faecalis [10]; 8 µg/mL with Staphylococcus aureus [11]; 1000 µg/mL in the experiment with Escherichia coli [12]; 8 µg/mL in the experiment with Streptococcus uberis [2]. Moreover, the results for the MIC against Escherichia coli [13] and in the experiment on Escherichia coli [14] were 200 µg/mL and 8 µg/mL, respectively.
